Assay results: ChEMBL document CHEMBL3639109, “Macrocyclic integrase inhibitors” (2013)

Target: Gag-Pol polyprotein (Human immunodeficiency virus type 1 group M subtype B (isolateBRU/LAI) (HIV-1), UniProt P03367)
Test: Inhibition Assay: Inhibition of HIV integrase.

SMILES | IC50
COC(=O)c1nc(Br)c2cccnc2c1OCc1ccccc1 | 950 nM
CCOC(=O)c1cc(F)ccc1C#N | 68000 nM
CNS(=O)(=O)CCCCCl | 1000 nM
CNS(=O)(=O)CCCCN=[N+]=[N-] | 250 nM
CNS(=O)(=O)CCCCN | 360 nM
CNS(=O)(=O)CCCCNC(=O)OC(C)(C)C | 1200 nM
CNS(=O)(=O)CCCCC#N | 1600 nM
COC(=O)c1nc(Br)c2cccnc2c1OS(=O)(=O)c1ccc(C)cc1 | 200 nM
